# Reference: article PMC7821181, “MS Binding Assays for Glycine Transporter 2 (GlyT2) Employing Org25543 as Reporter Ligand” (Chemmedchem, 2020)
# Where two headings read alike, the source gives them in different places.
# Assays:
# GlyT2 [1] = settings: ref 23; read-out: IC50 in [3H]glycine uptake assay; cited from earlier work
# hGlyT2 = target: T1, hGlyT2 (Homo sapiens, UniProt Q9Y345); assay: GlyT2 MS Binding Assays: saturation experiments with Org25543; settings: mean±SEM, n=3
# T1 construct: host or cells: HEK293 cells stably expressing hGlyT2; crude membrane fractions
# T1 sequence (Q9Y345 1-797): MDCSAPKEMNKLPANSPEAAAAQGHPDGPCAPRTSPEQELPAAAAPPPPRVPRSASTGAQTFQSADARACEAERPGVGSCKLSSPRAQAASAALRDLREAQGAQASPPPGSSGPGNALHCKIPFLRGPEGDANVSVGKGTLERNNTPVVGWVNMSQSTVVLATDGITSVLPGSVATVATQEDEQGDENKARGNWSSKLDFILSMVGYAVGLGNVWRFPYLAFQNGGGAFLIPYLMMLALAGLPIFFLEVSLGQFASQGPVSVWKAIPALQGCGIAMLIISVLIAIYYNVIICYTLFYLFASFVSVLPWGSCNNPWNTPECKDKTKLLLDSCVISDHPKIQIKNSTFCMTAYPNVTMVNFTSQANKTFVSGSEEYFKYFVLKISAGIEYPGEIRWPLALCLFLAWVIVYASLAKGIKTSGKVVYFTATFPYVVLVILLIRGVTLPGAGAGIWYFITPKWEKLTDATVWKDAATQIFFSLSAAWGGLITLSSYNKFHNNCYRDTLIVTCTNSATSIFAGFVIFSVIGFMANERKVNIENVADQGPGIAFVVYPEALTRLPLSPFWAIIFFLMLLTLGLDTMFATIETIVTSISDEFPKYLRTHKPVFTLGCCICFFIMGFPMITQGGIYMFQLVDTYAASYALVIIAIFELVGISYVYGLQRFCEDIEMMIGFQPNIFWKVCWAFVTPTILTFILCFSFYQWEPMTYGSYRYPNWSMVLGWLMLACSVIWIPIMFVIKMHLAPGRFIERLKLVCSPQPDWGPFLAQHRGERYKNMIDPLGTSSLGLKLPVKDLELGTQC
# Procedure: For the further characterization of the binding of Org25543 to GlyT2 saturation experiments were performed. To determine total binding of Org25543 GlyT2 membrane fractions were incubated with the reporter ligand in eight different concentrations (0.4–150 nM) and the samples analyzed after the general workup by LC‐ESI‐MS/MS as described above. Nonspecific binding was obtained from experiments that were completely analogous to the former except that protein subjected to a prior heat‐shock was used. Quantification of Org25543 in total binding samples could be realized down to the lowest nominal concentration level (0.4 nM). For nonspecific binding samples the quantification was possible down to 2 nM nominal marker concentration. For nominal marker concentrations lower than 2 nM the concentrations of Org25543 lay below the LLOQ. As it is generally acknowledged that nonspecific binding is related to nominal marker concentration in a linear fashion, ^[46] data points below this concentration were calculated by extrapolation after linear regression analysis of the data points for nonspecific binding at nominal marker concentrations from 2 to 150 nM.
# For preparation of GlyT2 membrane preparations HEK293 cells, stably expressing the hGlyT2 with a confluence ≥90 %, were used (kindly provided by AbbVie (Wiesbaden, Germany)). […]
# GlyT2 [2] = settings: ref 23, 27; read-out: IC50 (literature range); cited from earlier work
structure (smiles),measurement,setting,value
"COc1cc(C(=O)NCC2(N(C)C)CCCC2)cc(OC)c1OCc1ccccc1 [Org25543, N‐[[1‐(dimethylamino)cyclopentyl]methyl]‐3,5‐dimethoxy‐4‐(phenylmethoxy)benzamide]",IC50,GlyT2 [1],16 ± 1.9 nM
same,maximum density of binding sites (B max),hGlyT2; HEK293 hGlyT2 membrane preparation,26.15±1.03 pmol (mg protein)^−1
same,Kd,"hGlyT2; Org25543 0.4–150 nM, read-out: K d (saturation experiments)",7.45 nM
same,IC50,GlyT2 [2],16 to 31 nM
